Measured values taken from ChEMBL document CHEMBL1127280, “Imidazolidinones and pyrazolones as novel ACAT inhibitors: Chemistry and biological activity” (Bioorg Med Chem Lett, 1994).

What was measured:
[1] = molecular target: O-acyltransferase (Oryctolagus cuniculus, UniProt G1SFD9); test: In vitro Acyl coenzyme A:cholesterol acyltransferase inhibition by incubation with [14C]oleolyl-CoA and intestinal microsomes isolated from cholesterol-fed rabbits.; set-up: species or system Intestine
[2] = species on record: Rattus norvegicus; test: Cholesterol lowering activity was assessed in rats expressed as percent change in total cholesterol (TC) in cholic acid-cholesterol-peanut oil fed rats; format: functional

Sequence of O-acyltransferase (G1SFD9 1-524): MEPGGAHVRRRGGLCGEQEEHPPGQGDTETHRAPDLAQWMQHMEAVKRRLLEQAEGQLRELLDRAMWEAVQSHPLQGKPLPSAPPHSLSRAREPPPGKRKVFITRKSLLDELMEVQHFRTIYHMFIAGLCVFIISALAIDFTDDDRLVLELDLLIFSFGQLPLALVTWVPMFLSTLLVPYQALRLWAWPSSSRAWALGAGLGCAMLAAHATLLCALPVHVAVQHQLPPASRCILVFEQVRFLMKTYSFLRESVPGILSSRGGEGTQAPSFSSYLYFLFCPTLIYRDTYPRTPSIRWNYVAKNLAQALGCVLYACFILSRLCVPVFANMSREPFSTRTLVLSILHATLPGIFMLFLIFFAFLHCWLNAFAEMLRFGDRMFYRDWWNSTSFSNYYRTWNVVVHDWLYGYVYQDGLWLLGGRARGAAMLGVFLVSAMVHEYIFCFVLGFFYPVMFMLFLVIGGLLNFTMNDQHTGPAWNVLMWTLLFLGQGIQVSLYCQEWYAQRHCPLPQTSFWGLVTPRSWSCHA

IC50 [1] [µM]	SMILES	Change in TC [2] [%]
5	CC(C)c1cccc(C(C)C)c1N1CN(CC(c2ccccc2)c2ccccc2)CC1=O	-6
5	CCCCCCCC/C=C\CCCCCCCC1=NN(c2ccc(C)cc2C)C(=O)C1	-26
9.9	CCCCCCCC/C=C\CCCCCCCC1=NN(c2ccc(Cl)cc2Cl)C(=O)C1	–
5	CCCCCCCC/C=C\CCCCCCCC1=NN(c2ccc(F)cc2F)C(=O)C1	–
1.3	CC(C)c1cccc(C(C)C)c1N1CN(C(c2ccccc2)c2ccccc2)CC1=O	–
5	CCCCCCCC/C=C\CCCCCCCC1=NN(c2ccc([N+](=O)[O-])cc2[N+](=O)[O-])C(=O)C1	-26
3.9	CC(C)c1cccc(C(C)C)c1N1CNC(C(c2ccccc2)c2ccccc2)C1=O (stereo unspecified)	–
22.9	CCCCCCCC/C=C\CCCCCCCC1=NN(c2c(Cl)cccc2Cl)C(=O)C1	-18
5	CCCCCCCCCCC1=NN(c2c(C)cccc2C)C(=O)C1	–
50.8	Cc1cccc(C)c1N1N=C(CC(c2ccccc2)c2ccccc2)CC1=O	–
5.5	CC(C)c1cccc(C(C)C)c1N1CNC(Cc2ccccc2)C1=O (stereo unspecified)	-9
